Measurements taken from US3954865A, “N-cycloalkyl substituted-10,11-dihydro 5H-dibenzo[a,d] cyclohepten-5-imines” (E. I. Du Pont de Nemours and Company, priority 1974, dated 1976).

Assays:
[1] = tested on: uptake of dopamine by the corpus striatum; experiment: inhibition of uptake of labelled dopamine by rat corpus striatum homogenate (procedure of Coyle et al); assay type: biochemical; details: for Ratio Hypothalmus/Striatum: ratio of ID50 values, hypothalamus over striatum
Experimental: (§1) Many compounds which are active in the central nervous system of mammals appear to inhibit the uptake of catecholamines by mammalian brain tissues. […] The compounds of the invention have the ability of selectively inhibiting the uptake of dopamine by the corpus striatum. This ability was measured by a test procedure following that of Coyle et al supra. Rat brain slices from the corpus striatum and hypothalamus are separately homogenized and incubated with predetermined amounts of labelled norepinephrine or dopamine and a compound of the invention. After a suitable incubation period the amount of labelled catecholamine taken up by the brain homogenate is determined.

[2] = tested on: uptake of norepinephrine by the hypothalamus; experiment: inhibition of uptake of labelled norepinephrine by rat hypothalamus homogenate (procedure of Coyle et al); assay type: biochemical
Experimental: as §1

## c1ccc2c(c1)CCc1ccccc1C2=NCC1CC1 [Example 1, N-cyclopropylmethyl-10,11-dihydro-5H-dibenzo[a,d]cyclohepten-5-imine]
[1]; dopamine versus norepinephrine uptake
  inhibiting the uptake of dopamine, selectivity in words: almost exclusive effect inhibiting the uptake of dopamine
[1]
  Ratio Hypothalmus/Striatum: 20
[2]
  inhibiting the uptake of norepinephrine, in words: without significantly inhibiting the uptake of norepinephrine

## CC(C)N=C1c2ccccc2CCc2ccccc21 [Isopropyl, reference compound]
[1]
  Ratio Hypothalmus/Striatum: 0.25

## c1ccc2c(c1)CCc1ccccc1C2=NC1CC1 [Example 2, N-Cyclopropyl-10,11-dihydro-5H-dibenzo[a,d]cyclohepten-5-imine]
[1]
  Ratio Hypothalmus/Striatum: > 6

## CC(C)=C1CC(CN=C2c3ccccc3CCc3ccccc32)C1 (stereo not shown) [Example 5, N-(3-Isopropylidenecyclobutylmethyl)-10,11-dihydro[a,d]cyclohepten-5-imine]
[1]
  Ratio Hypothalmus/Striatum: 1.25

## Clc1ccc2c(c1)C(=NCC1CC1)c1ccccc1CC2 [Example 4, 3-Chloro-N-cyclopropylmethyl-10,11-dihydro-5H-dibenzocyclohepten-5-imine]
[1]
  Ratio Hypothalmus/Striatum: 2
